Like-named read-outs stand apart in the source and are kept apart here.
Columns and labels:
[1] = Permeability in CALU-3 cells; type: in vitro ADME; settings: human, CALU-3 monolayers, pH 7.4, 37° C., 10 μM compound; for Papp A→B at 90 min, 10 μM: apical-to-basal; for Papp B→A at 90 min, 10 μM: basal-to-apical
Experimental: Permeability in CALU-3 Cells:
Permeability measurements across polarized, confluent CALU-3 cell monolayers grown on permeable filter supports are used to provide information on the potential of a compound to pass the lung epithelium.
CALU-3 cells (1-2×10^5 cells/1 cm^2 area) are seeded on filter inserts (Costar transwell polycarbonate filters, 0.4 μm pore size) and cultured (for 10-12 days DMEM) until tight monolayers are formed. Compounds of interest are dissolved in appropriate solvent (DMSO, 10 mM stock solution). […] The transport solution (TL) is applied to the apical or basolateral donor side for measuring A-B or B-A permeability (3 filter replicates), respectively. The receiver side contains the same buffer as the donor side. After 30 min of accommodation, samples are collected at the start t0=0 min and at the end of the experiment tn=90 min from the donor and at 0, 30, 60, and 90 min also from the receiver chamber. Volume removed is […] by HTP-4 buffer. The compound concentration in the samples is measured by HPLC-MS/MS or scintillation counting. The permeability coefficient (Papp) and efflux ratio are calculated according to: Papp [cm/s]=(concentration receiver [nM]*volume receiver [mL]/time interval [sec])*(1/filter area)*(1/donor concentration [nM]).

[2] = molecular target: T1, ENaC (Epithelial Sodium Channel) (Mus musculus, UniProt Q61180+Q9WU38+Q9WU39); assay: Ussing Chamber assay: inhibition of amiloride sensitive short circuit current in M-1 cells; type: cell-based
T1 construct: Mouse kidney M-1 cells were cultivated in DMEM; endogenous in cells; host or cells: mouse kidney M-1 cells (cortical collecting duct line), dexamethasone-treated, grown on transwell filters
T1 sequence (Q61180 1-699): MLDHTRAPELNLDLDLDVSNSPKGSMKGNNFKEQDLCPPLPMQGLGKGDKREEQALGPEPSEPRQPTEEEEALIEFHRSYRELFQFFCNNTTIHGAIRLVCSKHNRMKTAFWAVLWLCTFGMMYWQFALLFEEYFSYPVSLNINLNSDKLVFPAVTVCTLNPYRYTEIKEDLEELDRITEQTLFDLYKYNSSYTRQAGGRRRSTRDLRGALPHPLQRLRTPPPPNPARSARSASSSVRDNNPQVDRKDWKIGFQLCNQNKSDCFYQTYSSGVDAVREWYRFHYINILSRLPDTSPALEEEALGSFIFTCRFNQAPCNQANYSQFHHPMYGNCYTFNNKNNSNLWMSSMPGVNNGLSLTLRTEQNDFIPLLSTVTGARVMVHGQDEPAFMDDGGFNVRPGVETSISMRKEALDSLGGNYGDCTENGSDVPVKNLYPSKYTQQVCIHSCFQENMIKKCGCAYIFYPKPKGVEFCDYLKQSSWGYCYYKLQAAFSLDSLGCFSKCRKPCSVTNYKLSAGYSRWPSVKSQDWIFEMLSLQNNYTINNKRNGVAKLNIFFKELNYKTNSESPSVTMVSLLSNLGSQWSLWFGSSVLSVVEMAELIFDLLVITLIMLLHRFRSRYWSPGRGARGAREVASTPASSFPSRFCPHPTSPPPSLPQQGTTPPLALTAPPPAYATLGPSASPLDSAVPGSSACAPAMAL
T1 sequence (Q9WU38 1-638): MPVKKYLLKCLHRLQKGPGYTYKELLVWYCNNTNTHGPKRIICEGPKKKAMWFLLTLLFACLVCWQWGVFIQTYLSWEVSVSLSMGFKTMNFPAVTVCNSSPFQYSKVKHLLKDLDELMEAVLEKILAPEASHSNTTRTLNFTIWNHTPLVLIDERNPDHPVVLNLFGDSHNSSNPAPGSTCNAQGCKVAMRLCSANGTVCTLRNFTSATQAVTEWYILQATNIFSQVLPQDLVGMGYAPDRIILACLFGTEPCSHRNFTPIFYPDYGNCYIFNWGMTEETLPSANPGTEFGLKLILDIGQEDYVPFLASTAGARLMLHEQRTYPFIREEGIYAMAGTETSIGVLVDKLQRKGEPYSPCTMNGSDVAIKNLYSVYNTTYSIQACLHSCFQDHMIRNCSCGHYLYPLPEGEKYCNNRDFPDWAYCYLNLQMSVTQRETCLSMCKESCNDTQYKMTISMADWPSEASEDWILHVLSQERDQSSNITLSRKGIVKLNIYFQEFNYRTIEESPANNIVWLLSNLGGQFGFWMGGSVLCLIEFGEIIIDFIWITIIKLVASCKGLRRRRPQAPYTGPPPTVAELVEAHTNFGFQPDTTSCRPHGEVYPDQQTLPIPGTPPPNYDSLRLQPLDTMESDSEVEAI
T1 sequence (Q9WU39 1-655): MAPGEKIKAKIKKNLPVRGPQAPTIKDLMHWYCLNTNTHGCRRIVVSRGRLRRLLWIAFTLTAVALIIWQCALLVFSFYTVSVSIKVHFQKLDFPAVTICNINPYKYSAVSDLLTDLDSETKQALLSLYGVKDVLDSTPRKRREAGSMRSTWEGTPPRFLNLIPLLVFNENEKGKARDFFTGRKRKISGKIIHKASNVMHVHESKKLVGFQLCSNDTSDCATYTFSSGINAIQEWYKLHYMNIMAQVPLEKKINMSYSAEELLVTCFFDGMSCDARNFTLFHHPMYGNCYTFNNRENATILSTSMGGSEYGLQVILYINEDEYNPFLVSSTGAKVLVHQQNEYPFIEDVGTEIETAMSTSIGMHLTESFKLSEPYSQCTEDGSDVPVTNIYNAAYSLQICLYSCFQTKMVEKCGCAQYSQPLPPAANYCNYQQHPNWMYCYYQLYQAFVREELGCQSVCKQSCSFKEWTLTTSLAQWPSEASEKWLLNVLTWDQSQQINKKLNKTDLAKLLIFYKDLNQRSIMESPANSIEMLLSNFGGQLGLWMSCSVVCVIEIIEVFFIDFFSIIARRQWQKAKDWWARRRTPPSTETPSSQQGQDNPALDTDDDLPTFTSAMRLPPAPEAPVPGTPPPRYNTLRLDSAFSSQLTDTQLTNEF
Experimental: Ussing Chamber: Mouse kidney M-1 cells were cultivated in DMEM containing 5% FCS and 5 μM dexamethasone for 10 to 12 days on polyester transwell filters. Filters were inserted into a teflon-coated well-plate which fit into the ussing chamber system. Prior to measurement the medium of M-1 cells was replaced with Caco-2 transport buffer (Invitrogen, Germany). During measurements, the Ussing chamber temperature was kept at 37° C. Short circuit currents (I_sc) were measured in the voltage-clamp mode with the software package Lab View for data acquisition and analysis. The transepithelial electrical resistance (TEER) was determined by the application of voltage steps of ±5 mV every 5 sec. Compounds were administered at a final concentration of 3 μM or at increasing concentrations (1-3-10 μM) to the apical solution. At the end of each experiment the amiloride sensitive I_SC was measured by adding 3 μM amiloride to the apical compartment. Results are expressed as inhibition in percent of the amiloride effect or as IC50.

[3] = Ussing chamber, mouse kidney M-1 cells, short circuit current, apical administration, 37° C., read-out: IC50

Row | SMILES | Papp A→B at 90 min, 10 μM [1] [×10⁻⁶ cm/s] | Papp B→A at 90 min, 10 μM [1] [×10⁻⁶ cm/s] | IC50 [2, 3] [nM] | IC50 [2] [nM]
1 | CCn1c(CNC(=O)c2nc(Cl)c(N)nc2N)[n+](Cc2cccnc2)c2ccc(OCC(=O)N(C)C)cc21.O=C([O-])C(F)(F)F [Example 1.02] | 0.4 | 0.2 | 6 | –
2 | CCn1c(CNC(=O)c2nc(Cl)c(N)nc2N)[n+](CC2CCOCC2)c2ccc(OCC(=O)N(Cc3nc(C)ccc3[O-])C[C@H](C)O)cc21 [Example 1.12] | – | – | 2 | –
3 | CC[n+]1c(CNC(=O)c2nc(Cl)c(N)nc2N)n(C[C@@H]2CCCO2)c2cc(OCC(=O)N3CC[S+]([O-])CC3)ccc21.O=C([O-])C(F)(F)F [Example 1.01] | 0.5 | 0.08 | 1 | –
4 | CC[n+]1c(CNC(=O)c2nc(Cl)c(N)nc2N)n(C[C@@H]2CCCO2)c2cc(OCC(=O)NCc3ccccn3)ccc21.O=C([O-])C(F)(F)F [Example 2.01] | 0.03 | 0.05 | 1 | –
5 | CCn1c(CNC(=O)c2nc(Cl)c(N)nc2N)[n+](CC2CCOCC2)c2ccc(OCC(=O)N(C)Cc3nc(C)ccc3[O-])cc21 [Example 1.06] | – | – | 1 | –
6 | CC[n+]1c(CNC(=O)c2nc(Cl)c(N)nc2N)n(C[C@@H]2CCCO2)c2cc(OCC(=O)N3C[C@@H](O)[C@H](O)C3)ccc21 [Example 1.15] | – | – | 2 | –
7 | CCOP(=O)([O-])CCCCn1c(CNC(=O)c2nc(Br)c(N)nc2N)[n+](CC)c2ccc(O)cc21 [Example 6.01] | – | – | – | 25
8 | CCCCCCN1CCC(NC(=O)COc2ccc3c(c2)n(C2CCN(C(=O)NCC)CC2)c(CNC(=O)c2nc(Cl)c(N)nc2N)[n+]3CC)CC1 [Example 4.01] | – | – | 4 | –
9 | CCNC(=O)N1CCC(n2c(CNC(=O)c3nc(Cl)c(N)nc3N)[n+](CC)c3ccc(OCC(=O)O)cc32)CC1 [Example 5.01] | – | – | 18 | –
10 | CCN(Cc1ncccc1[O-])C(=O)COc1ccc2c(c1)n(CC)c(CNC(=O)c1nc(Cl)c(N)nc1N)[n+]2CC1CCOCC1 [Example 1.17] | – | – | 1 | –
11 | C[n+]1c(CNC(=O)c2nc(Cl)c(N)nc2N)n(C[C@@H]2CCCO2)c2cc(OCCO)ccc21.O=C([O-])C(F)(F)F [Example 1.04] | 0.3 | 0.2 | 3 | –
12 | CCn1c(CNC(=O)c2nc(Cl)c(N)nc2N)[n+](Cc2cccc(C(=O)N3CC[S+]([O-])CC3)c2)c2ccc(OCCO)cc21.O=C([O-])C(F)(F)F [Example 1.08] | 0.1 | 0.09 | 16 | –
13 | CCn1c(CNC(=O)c2nc(Cl)c(N)nc2N)[n+](CC2CCOCC2)c2ccc(OCC(=O)N(Cc3ccccc3)Cc3nc(C)ccc3[O-])cc21 [Example 1.05] | – | – | 5 | –
14 | CC[n+]1c(CNC(=O)c2nc(Cl)c(N)nc2N)n(CCOCCn2cc(C(=O)N(C)C)ccc2=O)c2cc(OCCO)ccc21 [Example 1.11] | – | – | 26 | –
15 | CC[n+]1c(CNC(=O)c2nc(Cl)c(N)nc2N)n(CCOCCN2CCCCC2=O)c2cc(OCP(C)(C)=O)ccc21 [Example 1.16] | – | – | 87 | –
16 | CC[n+]1c(CNC(=O)c2nc(Cl)c(N)nc2N)n(CCOCCn2ccccc2=O)c2cc(OCP(C)(C)=O)ccc21.O=C([O-])C(F)(F)F [Example 1.03] | 0.2 | 0.07 | 49 | –
17 | CC[n+]1c(CNC(=O)c2nc(Cl)c(N)nc2N)n(CC2CCOCC2)c2cc(OCCC[n+]3cc([O-])cc(OC)c3)c(Cl)cc21.O=C([O-])C(F)(F)F [Example 1.13] | 0.4 | 0.1 | 2 | –
18 | Nc1nc(N)c(C(=O)NCc2n(C[C@@H]3CCCO3)c3cc(OCCO)ccc3[n+]2CCOCCO)nc1Cl [Example 1.09] | – | – | 3 | –
19 | CC[n+]1c(CNC(=O)c2nc(Cl)c(N)nc2N)n(CCCCP(=O)([O-])O)c2cc(O)ccc21 [Example 7.01] | – | – | 63 | –
20 | CC[n+]1c(CNC(=O)c2nc(Cl)c(N)nc2N)n(C[C@@H]2CCCO2)c2cc(OCC(=O)N3CCN(C(=O)OCc4ccccc4)CC3)ccc21 [Example 1.14] | – | – | 7 | –
21 | CCn1c(CNC(=O)c2nc(Cl)c(N)nc2N)[n+](CC2CCOCC2)c2ccc(OCC(=O)NCc3nc(C)ccc3[O-])cc21 [Example 1.07] | – | – | 2 | –
22 | CCNC(=O)N1CCC(n2c(CNC(=O)c3nc(Cl)c(N)nc3N)[n+](CC)c3ccc(OCC(=O)NC4CCN(CC)CC4)cc32)CC1 [Example 4.02] | – | – | 2 | –
23 | CCNC(=O)N1CCC(n2c(CNC(=O)c3nc(Cl)c(N)nc3N)[n+](CC)c3ccc(OCC(=O)NC4CCNCC4)cc32)CC1 [Example 3.02] | – | – | 3 | –

Reference: patent US20180002312A1, “TETRA- AND PENTASUBSTITUTED BENZIMIDAZOLIUM COMPOUNDS USEFUL IN THE TREATMENT OF RESPIRATORY DISEASES” (Boehringer Ingelheim International GmbH, priority 2015, published 2018)
